From patent US6852759B2, “Process for the synthesis of trans-alkenoic acids, use thereof” (priority 2002, dated 2005)
Read-outs that look alike come from different tables or passages of the source. Marks after values point to notes of the source that are not given here.

Columns and labels:
[1] = tested on: alcohol induced hepatic damage in rats; assay: Hepatoprotective activity against alcohol induced hepatic damage (serum and hepatic parameters); assay type: in vivo; details: for Hepatic Protein % change: only change and not protection
[2] = tested on: CCl4 administration in mice; assay: Hexobarbitone sleep time after CCl4 administration; assay type: in vivo
[3] = tested on: CCl4 administration in mice
[4] = tested on: acetaminophen (APAP) in mice; assay: Hepatoprotective activity, prophylactic study, acetaminophen (APAP) after diethyl-ether; assay type: in vivo; details: prophylactic
[5] = 12.5 mg/kg p.o. 1 h before CCl4, mice
[6] = 25 mg/kg p.o. 1 h before CCl4, mice
[7] = 50 mg/kg p.o. 1 h before CCl4, mice
[8] = 100 mg/kg p.o. 1 h before CCl4, mice

SMILES: CCCCCCCC/C=C/CCCCCCCCCCCCCC(=O)O [TCA, t-Tetracos-15-enoic acid]
- Hepatic G-6-Pase ([1]; 25 mg/kg + Alcohol): 2.19 ± 0.465 Units/g
- Hepatic G-6-Pase % Protection ([1]; 25 mg/kg + Alcohol): 73%
- Hepatic Protein ([1]; 25 mg/kg + Alcohol): 172 ± 20.430 Mg/g
- Hepatic SDII ([1]; 25 mg/kg + Alcohol): 7.79 ± 0.272 Units/G
- Hepatic SDII % Protection ([1]; 25 mg/kg + Alcohol): 14%
- Hepatic TG ([1]; 25 mg/kg + Alcohol): 14.75 ± 0.60 Mg/g
- Hepatic TG % change ([1]; 25 mg/kg + Alcohol): −3.10%
- Hepatic Protein % change ([1]; 25 mg/kg + Alcohol): −3.9%
- ALF ([1]; 25 mg/kg + Alcohol, serum): 16.00 ± 2.04 U/I
- ALF % Protection ([1]; 25 mg/kg + Alcohol, serum): 80.00%
- GGT ([1]; 25 mg/kg + Alcohol, serum): 1.90 ± 0.447 IU/I
- GGT % Protection ([1]; 25 mg/kg + Alcohol, serum): 63.00%
- SGOT ([1]; 25 mg/kg + Alcohol, serum): 310.00 ± 30.36**^β U/I
- SGOT % Protection ([1]; 25 mg/kg + Alcohol, serum): 77.29%
- SGPT ([1]; 25 mg/kg + Alcohol, serum): 234.00 ± 8.80**^β U/I
- SGPT % Protection ([1]; 25 mg/kg + Alcohol, serum): 57.33%
- Serum Protein ([1]; 25 mg/kg + Alcohol, serum): 16.90 ± 3.38 G/dl
- Serum Protein % Protection ([1]; 25 mg/kg + Alcohol, serum): 44.40%
- Hepatic G-6-Pase ([1]; 50 mg/kg + Alcohol): 2.20 ± 2.223 Units/g
- Hepatic G-6-Pase % Protection ([1]; 50 mg/kg + Alcohol): 75%
- Hepatic Protein ([1]; 50 mg/kg + Alcohol): 174 ± 2.11 Mg/g
- Hepatic SDII ([1]; 50 mg/kg + Alcohol): 8.24 ± 0.390 Units/G
- Hepatic SDII % Protection ([1]; 50 mg/kg + Alcohol): 43%
- Hepatic TG ([1]; 50 mg/kg + Alcohol): 15.44 ± 1.073 Mg/g
- Hepatic TG % change ([1]; 50 mg/kg + Alcohol): 1.40%
- Hepatic Protein % change ([1]; 50 mg/kg + Alcohol): −2.80%
- ALF ([1]; 50 mg/kg + Alcohol, serum): 14.60 ± 2.82***^β U/I
- ALF % Protection ([1]; 50 mg/kg + Alcohol, serum): 95.00%
- GGT ([1]; 50 mg/kg + Alcohol, serum): 1.54 ± 0.128 IU/I
- GGT % Protection ([1]; 50 mg/kg + Alcohol, serum): 90.00%
- SGOT ([1]; 50 mg/kg + Alcohol, serum): 295.00 ± 34.39**^β U/I
- SGOT % Protection ([1]; 50 mg/kg + Alcohol, serum): 101.09%
- SGPT % Protection ([1]; 50 mg/kg + Alcohol, serum): 73.86%
- Serum Protein ([1]; 50 mg/kg + Alcohol, serum): 12.60 ± 3.09 G/dl
- Serum Protein % Protection ([1]; 50 mg/kg + Alcohol, serum): 7.70%
- Hexobarbitone Hepatoprotection [2, 5]: 35.55 ± 5.78%
- Hexobarbitone Sleeping time [2, 5]: 44.16 ± 1.87*^c min
- Hexobarbitone Hepatoprotection [2, 6]: 55.14 ± 7.16%
- Hexobarbitone Sleeping time [2, 6]: 37.83 ± 2.31**^c min
- Hexobarbitone Hepatoprotection [2, 7]: 74.21 ± 6.27%
- Hexobarbitone Sleeping time [2, 7]: 31.66 ± 2.31**^c min
- Hexobarbitone Hepatoprotection [2, 8]: 85.04 ± 7.12%
- Hexobarbitone Sleeping time [2, 8]: 28.16 ± 2.30**^c min
- Hexobarbitone Sleeping time ([2]; TCA alone 100 mg/kg p.o., no CCl4, mice): 21.85 ± 1.34 min
- Zoxazolamine Hepatoprotection [3, 5]: 40.10 ± 6.55%
- Zoxazolamine Paralysis time [3, 5]: 39.00 ± 1.93*^c min
- Zoxazolamine Hepatoprotection [3, 6]: 51.40 ± 11.12%
- Zoxazolamine Paralysis time [3, 6]: 35.66 ± 3.28**^c min
- Zoxazolamine Hepatoprotection [3, 7]: 70.61 ± 7.68%
- Zoxazolamine Paralysis time [3, 7]: 30.00 ± 2.26**^c min
- Zoxazolamine Hepatoprotection [3, 8]: 84.17 ± 6.55%
- Zoxazolamine Paralysis time [3, 8]: 26.00 ± 1.93**^c min
- Serum ALP ([4]; 12.5 mg/kg p.o. + APAP): 50.41 ± 3.07 μmole of p-nitrophenel formed/min/L
- Serum ALP, hepatoprotective activity percent ([4]; 12.5 mg/kg p.o. + APAP): (21.27 ± 9.50) percent
- Serum GOT ([4]; 12.5 mg/kg p.o. + APAP): 1079.43 ± 98.66 Units
- Serum GOT, hepatoprotective activity percent ([4]; 12.5 mg/kg p.o. + APAP): (25.66 ± 7.72) percent
- Serum GPT ([4]; 12.5 mg/kg p.o. + APAP): 2182.19 ± 137.86 Units
- Serum GPT, hepatoprotective activity percent ([4]; 12.5 mg/kg p.o. + APAP): (22.86 ± 5.31) percent
- Serum Triglycerides ([4]; 12.5 mg/kg p.o. + APAP): 14.72 ± 0.68 mg %
- Serum Triglycerides, hepatoprotective activity percent ([4]; 12.5 mg/kg p.o. + APAP): (28.28 ± 8.27) percent
- Serum ALP ([4]; 25 mg/kg p.o. + APAP): 46.23 ± 1.73 μmole of p-nitrophenel formed/min/L
